From patent US20260109721A1, “IONIZABLE CATIONIC LIPIDS INCORPORATING SILICON: SYNTHESIS AND LNP FORMULATION” (priority 2023, published 2026)
Read-outs that look alike come from different tables or passages of the source.

What was measured:
[1] = Encapsulation efficiency of loaded LNPs, RiboGreen RNA assay (Method A); type: physicochemical; details: encapsulation efficiency of mRNA-loaded LNP, Method A, RiboGreen
Procedure, shortened: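 Encapsulation determined by RiboGreen fluorescence (excitation 480, emission 525) comparing Triton X-100–lysed and intact LNP wells, duplicates, after 10 min at 37° C and cooling to room temperature. Sample stocks ~4-7 μg/mL RNA in TE buffer; concentration from RNA standard curve.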

HeLa cells = test: Cell viability assessment with resazurin assay (Method A); type: cell-based
Procedure, shortened: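 Viability is given as percent of control metabolic activity: background-corrected resorufin fluorescence (ex 540, em 610 nm), with OptiMEM-only wells set to 100%. Resazurin at 0.025 mg/ml in DMEM/F12 with 10% FCS was applied to LNP-transfected HeLa cells for 50 min at 37 °C.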

SMILES | EE (%) [1] | Cell Viability % (Average metabolic rate over all doses, Resazurin) (HeLa cells; human) | Cell Viability % (Average metabolic rate over all doses, Resazurin) (HeLa cells)
CCCCCCCC/C=C\CCCCCCCCOC(=O)C(C)(C)CC(OCCCCCCCC/C=C\CCCCCCCC)O[Si](C)(C)OCCCCCCN(CCO)CCO (stereo not drawn) [Example 84, (Z)-octadec-9-en-1-yl 1-hydroxy-3-(2-hydroxyethyl)-11,11,15,15-tetramethyl-13-(((Z)-octadec-9-en-1-yl)oxy)-10,12-dioxa-3-aza-11-silahexadecan-16-oate] | 90% | 114% | 
CCCCCCCC/C=C\CCCCCCCCOC(=O)C(C)(C)CC(OCCCCCCCC/C=C\CCCCCCCC)O[Si](C)(C)OCCCCCCN1CCOCC1 (stereo not drawn) [Example 85, (Z)-octadec-9-en-1-yl 4-((dimethyl((6-morpholinohexyl)oxy)silyl)oxy)-2,2-dimethyl-4-(((Z)-octadec-9-en-1-yl)oxy)butanoate] | 90% | 110% | 
CCCCCCCC/C=C\CCCCCCCCOC(=O)C(C)(C)CC(OCCCCCCCC/C=C\CCCCCCCC)O[Si](C)(C)OCCCCCCN(CCCCO)CCCCO (stereo not drawn) [Example 86, (Z)-octadec-9-en-1-yl 18-hydroxy-14-(4-hydroxybutyl)-2,2,6,6-tetramethyl-4-(((Z)-octadec-9-en-1-yl)oxy)-5,7-dioxa-14-aza-6-silaoctadecanoate] | 87% | 96% | 
CCCCCCCC/C=C\CCCCCCCCOC(=O)C(C)(C)CC(OCCCCCCCC/C=C\CCCCCCCC)O[Si](C)(C)OCCCCCCN1CCCCC1 (stereo not drawn) [Example 87, (Z)-octadec-9-en-1-yl 4-((dimethyl((6-(piperidin-1-yl)hexyl)oxy)silyl)oxy)-2,2-dimethyl-4-(((Z)-octadec-9-en-1-yl)oxy)butanoate] | 89% | 84% | 
CCCCCCCC/C=C\CCCCCCCCOC(=O)C(C)(C)CC(OCCCCCCCC/C=C\CCCCCCCC)O[Si](C)(C)OCCCCCCN(CCCO)CCCO (stereo not drawn) [Example 88, (Z)-octadec-9-en-1-yl 1-hydroxy-4-(3-hydroxypropyl)-12,12,16,16-tetramethyl-14-(((Z)-octadec-9-en-1-yl)oxy)-11,13-dioxa-4-aza-12-silaheptadecan-17-oate] | 87% | 91% | 
CCCCCCCC/C=C\CCCCCCCCOC(=O)C(C)(C)CC(OCCCCCCCC/C=C\CCCCCCCC)O[Si](C)(C)OCCCCCCN1CCCCC1CO (stereo not drawn) [Example 89, (Z)-octadec-9-en-1-yl 4-((((6-(2-(hydroxymethyl)piperidin-1-yl)hexyl)oxy)dimethylsilyl)oxy)-2,2-dimethyl-4-(((Z)-octadec-9-en-1-yl)oxy)butanoate] | 89% | 96% | 
CCCCCCCC/C=C\CCCCCCCCOC(=O)C(C)(C)CC(OCCCCCCCC/C=C\CCCCCCCC)O[Si](C)(C)OCCCCCCN1CCCC1CO (stereo not drawn) [Example 90, (Z)-octadec-9-en-1-yl 4-((((6-(2-(hydroxymethyl)pyrrolidin-1-yl)hexyl)oxy)dimethylsilyl)oxy)-2,2-dimethyl-4-(((Z)-octadec-9-en-1-yl)oxy)butanoate] | 87% | 106% | 
CCCCCCCC/C=C\CCCCCCCCOC(=O)C(C)(C)CC(OCCCCCCCC/C=C\CCCCCCCC)O[Si](C)(C)OCCCCCCN(C)CCCCO (stereo not drawn) [Example 91, (Z)-octadec-9-en-1-yl 18-hydroxy-2,2,6,6,14-pentamethyl-4-(((Z)-octadec-9-en-1-yl)oxy)-5,7-dioxa-14-aza-6-silaoctadecanoate] | 88% | 105% | 
CCCCCCCC/C=C\CCCCCCCCOC(=O)C(C)(C)CC(OCCCCCCCC/C=C\CCCCCCCC)O[Si](C)(C)OCCCCCCN(C)CC(O)CO (stereo not drawn) [Example 92, (Z)-octadec-9-en-1-yl 1,2-dihydroxy-4,12,12,16,16-pentamethyl-14-(((Z)-octadec-9-en-1-yl)oxy)-11,13-dioxa-4-aza-12-silaheptadecan-17-oate] | 89% | 111% | 
CCCCCCCC/C=C\CCCCCCCCOC(=O)C(C)(C)CC(OCCCCCCCC/C=C\CCCCCCCC)O[Si](C)(C)OCCCCCCN(C)CCO (stereo not drawn) [Example 93, (Z)-octadec-9-en-1-yl 1-hydroxy-3,11,11,15,15-pentamethyl-13-(((Z)-octadec-9-en-1-yl)oxy)-10,12-dioxa-3-aza-11-silahexadecan-16-oate] | 88% | 106% | 
CCCCCCCC/C=C\CCCCCCCCOC(=O)C(C)(C)CCC(OCCCCCCCC/C=C\CCCCCCCC)O[Si](C)(C)OCCCCCCN(CCO)CCO (stereo not drawn) [Example 94, (Z)-octadec-9-en-1-yl 1-hydroxy-3-(2-hydroxyethyl)-11,11,16,16-tetramethyl-13-(((Z)-octadec-9-en-1-yl)oxy)-10,12-dioxa-3-aza-11-silaheptadecan-17-oate] | 86% | 101% | 
CCCCCCCC/C=C\CCCCCCCCOC(=O)C(C)(C)CCC(OCCCCCCCC/C=C\CCCCCCCC)O[Si](C)(C)OCCCCCCN1CCOCC1 (stereo not drawn) [Example 95, (Z)-octadec-9-en-1-yl 5-((dimethyl((6-morpholinohexyl)oxy)silyl)oxy)-2,2-dimethyl-5-(((Z)-octadec-9-en-1-yl)oxy)pentanoate] | 88% | 106% | 
CCCCCCCC/C=C\CCCCCCCCOC(=O)C(C)(C)CC(OCCCCCCCC/C=C\CCCCCCCC)O[Si](C)(C)OCCCCCCN(CCO)CCN(CCO)CCCCCCO[Si](C)(C)OC(CC(C)(C)C(=O)OCCCCCCCC/C=C\CCCCCCCC)OCCCCCCCC/C=C\CCCCCCCC (stereo not drawn) [Example 96, di((Z)-octadec-9-en-1-yl) 14,17-bis(2-hydroxyethyl)-2,2,6,6,25,25,29,29-octamethyl-4,27-bis(((Z)-octadec-9-en-1-yl)oxy)-5,7,24,26-tetraoxa-14,17-diaza-6,25-disilatriacontanedioate] | 89% | 104% | 
C#CCN(C)CCCCCCO[Si](C)(C)OC(CC(C)(C)C(=O)OCCCCCCCC/C=C\CCCCCCCC)OCCCCCCCC/C=C\CCCCCCCC (stereo not drawn) [Example 97, (Z)-octadec-9-en-1-yl 4,12,12,16,16-pentamethyl-14-(((Z)-octadec-9-en-1-yl)oxy)-11,13-dioxa-4-aza-12-silaheptadec-1-yn-17-oate] | 86% | 109% | 
CCCCCCCCCCCOC(=O)CCCCCN(CCO)CCCCCCCC(=O)OC(CCCCCCCC)CCCCCCCC [SM-102, reference compound] | 88% |  | 91%
